Test results: patent publication US7683061B2, “Triazine dimers for the treatment of autoimmune diseases” (ProMetic BioSciences Inc., priority 2003, dated 2010)
Like-named read-outs stand apart in the source and are kept apart here.

Columns and labels:
[1] = tested on: TNFα production, J774A-1 cells; test: LPS-induced TNFα production in J774A-1 cells (ELISA); assay type: cell-based; details: Mus musculus, J774.A1, 24 h, read-out: IC50 (μM), inhibition of TNFα released by LPS induction
Method: Effect of compounds on TNFα production was measured by ELISA using J774-1 cells stimulated by LPS. J774-1 cells were cultured in the presence or absence of LPS and compound. Cells were cultured at 37° C. for 24 h and thereafter the supernatants were collected for the determination of the concentration of TNFα by ELISA as recommended by the manufacturer (BD Biosciences). Data was analyzed in Microsoft Excel and the concentration of compound which inhibits 50% of TNFα production (IC50) was calculated using Prism software.

[2] = molecular target: T1, Fc portion of human IgG (binding of protein A to human IgG); test: Competitive protein A binding ELISA; details: Table 1
T1 construct: fused on or other part: Horseradish peroxidase chemically conjugated to the IgG (HRP-IgG)
Method: As described above, this assay evaluates the ability of the exemplified compounds to mimic protein A. Such compounds can bind to the Fc portion of human IgG as ascertained by the inhibition of binding of protein A to human IgG. The competitive protein A binding ELISA assay was performed on a 96-well plate Maxisorp surface to enhance the binding of protein A to the bottom of the plate. The wells were coated with 100 μL of protein A (0.8 μg) and incubated overnight at 4° C. After incubation, unbound protein A was removed by three washes with phosphate buffer saline (PBS). The plate was then incubated with 100 μL/well of a 2% solution of bovine serum albumin (BSA) for 1 h at 37° C. to block non specific protein binding. After incubation, the plate was washed to times with PBS. 50 μL of compound or protein A, diluted in PBS or PBS-20% DMSO at appropriate concentration, were added to the wells followed by addition of 50 μL of peroxidase-conjugated human IgG (HRP-IgG). After 1 h incubation at 37° C., the plate was washed free times with PBS to remove unbound HRP-IgG. Bound HRP-IgG was detected by incubation with 100 μL of 2,2′-Azino-di[3-ethylbenzothiazoline sulfonate]diammonium salt crystals (ABTS) solution for 20 min in the dark at room temperature. The plate was then read at 405 nm on a EL 800, universal Microplate reader (Bio-Tek). Data was analyzed in Microsoft Excel and the concentration of compound which inhibits 50% binding of protein A (IC50) was calculated using Prism software.
Table 1 represents the IC50 of compounds tested in the competitive protein A binding ELISA assay, which consists of a side-by-side analysis in PBS and PBS-20% DMSO. DMSO was used to increase the solubility of some of the compounds.

RAW 264.7 cells = test: Phagocytosis of FITC-immune complexes by RAW 264.7 cells; assay type: cell-based; details: Mus musculus, RAW264.7; 20 μM; read-out: inhibition of phagocytosis of IC
Method: This assay was performed to determine the ability of protein A mimic compounds to stimulate or inhibit uptake of FITC-Immune Complex (IC). FITC-IC was prepared by mixing human serum albumin (HSA)-fluorescein isothiocyanate (FITC) with mouse IgG anti-HSA at a 1:4 ratio (four molecules of antibody for one molecule of antigen) on a rotary shaker for 1 h at room temperature. Soluble IC was then incubated with or without compounds or protein A for 10 min. This mixture was added to RAW 264.7 cells and incubated for 2 h at 37° C. for IC phagocytosis. After incubation, cells were washed twice in cold PBS (5 min, 1200 rpm) and fixed with 500 μL PBS containing 2% formaldehyde. FITC signal taken up by RAW 264.7, which is indicative of IC phagocytosis, was determined by flow cytometry analysis in a Becton Coulter counter with an argon laser and signal was measured through a 530/30 nm filter.

MRL/lpr mice = test: SLE-like syndrome in MRL/lpr mice; assay type: in vivo; details: control group 10%
Source text: FIG. 5 is an example of the effect of compounds on survival of MRL/lpr mice. These mice also spontaneously develop SLE-like syndrome. MRL/lpr have a homozygous fas mutation, which accelerates autoimmunity. […] Furthermore, compounds 1 and 20 increase the survival (40%) compared to the control group (10%).

[3] = molecular target: T2, TNFα / p75 TNFα receptor (CD120b) (Homo sapiens, UniProt P01375); test: Binding ELISA: TNF-α binding to plastic coated TNF-R2; details: for inhibition at 100 µM: 10^−4 M; for inhibition at 10 µM: 10^−5 M
Method: (§1) Compounds were tested for their ability to bind to TNFα or inhibit the interaction of TNFα with its respective receptors; p55 and p75 TNFα receptor. Three binding ELISA assays were undertaken as described by Mancini et al. Biochemical Pharmacology 58, 851-859 (1999). TNFα or receptor (1 μg/mL) was coated on a 96-well plate Maxisorp, overnight at 4° C. After incubation, unbound TNFα or p55 TNFα receptor or p75 TNFα receptor was removed and the plate washed three times with PBS. The plate was then incubated with 100 μL/well of a 2% BSA solution for 1 h at 37° C. to block non specific protein binding. After incubation, the plate was washed three times with PBS. Biotinylated recombinant human TNFα p55 or p75 receptor or biotinylated recombinant human TNFα was added to the wells in the presence or absence of compounds. The plate was incubated for 1 h at 37° C. After incubation, the plate was washed three times with PBS to remove unbound labeled p55 or p75 receptor or recombinant human TNFα. 100 μL of avidin-HRP (diluted 1/2000 in PBS-0.1% BSA) was added to each well and incubated 1 h at 37° C. Bound p55 or p75 receptor or recombinant human TNFα was detected by the addition of 200 μL of 3,3′,5,5′-tetramethylbenzidine (TMB) per well for 15 min. The plate was then read at 655 nm on a EL 800 universal Microplate reader (Bio-Tek, Mississauga, Canada). Data was analyzed in Microsoft Excel and recorded as the percentage of inhibition of p55 or p75 binding to TNFα or TNFα binding to RI (p55) or RII (p75).

[4] = molecular target: T3, TNFα / p55 TNFα receptor (CD120a) (Homo sapiens, UniProt P01375); test: Binding ELISA: TNF-α binding to plastic coated TNF-R1; details: for inhibition at 100 µM: 10^−4 M; for inhibition at 10 µM: 10^−5 M
Method: as §1

[5] = molecular target: T2, TNFα / p75 TNFα receptor (CD120b); test: Binding ELISA: sTNF-R2 binding to plastic coated TNF-α; details: for inhibition at 100 µM: 10^−4 M; for inhibition at 10 µM: 10^−5 M
Method: as §1

[6] = molecular target: T3, TNFα / p55 TNFα receptor (CD120a); test: Binding ELISA: sTNF-R1 binding to plastic coated TNF-α; details: for inhibition at 100 µM: 10^−4 M; for inhibition at 10 µM: 10^−5 M
Method: as §1

[7] = tested on: TNFα-induced apoptosis, WEHI-13VAR cells; test: TNFα induced apoptosis in WEHI-13VAR cells (MTT); assay type: cell-based, murine; details: Mus musculus; for inhibition at 10 µM: 1 × 10^−5M; for inhibition at 20 µM: 2 × 10^−5M; for inhibition at 40 µM: 4 × 10^−5M; for inhibition at 5 µM: 5 × 10^−6M
Method: Effect of compounds on TNFα-induced apoptosis was measured by a standard biological assay using WEHI-13VAR cells. These cells undergo apoptosis when they are incubated in the presence of TNFα and actinomycin D. 2×10^4 WEHI-13VAR cells were incubated in RPMI supplemented with 1% sodium pyruvate and 10% FBS, overnight at 37° C. for cell adherence. The cells were then cultured in the presence of 1 μg/mL of actinomycin D (to inhibit protein synthesis) and 0.04 nM TNFα with or without compounds at 37° C. After 16-24 h, 50 μL of a solution of 2 mg/mL of MTT was added to each well and the plate was then incubated for 4 h at 37° C. Only viable cells metabolize MTT to form formazan salt, which is detectable by the measurement of absorbance at 570 nm. After the incubation, the plate was inverted to remove medium and dead cells. 150 μL DMSO was added to each well to stop the reaction and solubilize the formazan salt. Optical density was read on a EL 800, universal Microplate reader (Bio-Tek). A decrease in the optical density is direct evidence of cell apoptosis induced by TNFα. Compounds were also compared to the activity of an anti-TNFα neutralizing antibody.

[8] = tested on: female Lewis rats, collagen-induced arthritis; test: Collagen-induced arthritis (CIA); assay type: in vivo; details: intravenous; by day 14 and beyond
Method: Collagen-induced arthritis (CIA) was induced in female Lewis rats by intradermal administration of heterologous (bovine) type II collagen (250 μg) solubilized in 0.1 M acetic acid and emulsified in Complete Freund's Adjuvant (CFA). Rats were treated with the vehicle or methotrexate or compound 1 by intravenous injections at day 8, 9, 12, 14 and 16. Synovitis typically develops 12-15 days postimmunization in 80-90% of the animals. Once arthritis appears, each paw was examined two to three times a week. Both the incidence and severity of the arthritis was evaluated. Incidence is defined as the number of rats with clinical evidence of joint inflammation during the study period while severity was quantified by scoring daily each paw integer on a scale of 0 to 4 (0=normal, 4=maximum; Table 7) based on increasing levels of swelling, periarticular erythema and stiffness. The sum of the scores for all four paws was calculated as the arthritic index with a maximum possible score of 16 per rat. Since CIA primarily affects hind limbs, scores of 6-8 represent severe arthritis.

[9] = tested on: female Lewis rats, adjuvant-induced arthritis; test: Freund's adjuvant-induced arthritis (AIA); assay type: in vivo
Source text: AIA was induced in female Lewis rats by the injection of lyophilized Mycobacterium butyricum suspended in mineral oil into the footpad. The development of aridity was monitored over a 3 weeks period post-adjuvant injection, inflammation peaks at day 3 following the adjuvant administration. Immune activation appears around day 14. Compounds were orally or intravenously administered at different doses at day −3, −2 and −1 pre-adjuvant injection and at different regimen as specified in the exponent starting from day 10 through 21 post-adjuvant injection or animals were treated with oral admiration of compound 19a from day −3 to day 21. Body weight was recorded. The arthritis index, which is a measure of inflammation (oedema), redness and stiffness of the articulations, was used to monitor the development of the disease. The degree of arthritis was determined by measuring two perpendicular diameters of the ankles in the mediolateral and dorsoventral planes using a caliper. Joint circumference in millimeters is then calculated using a geometric formula. Both the incidence and severity of the arthritis was evaluated. Incidence is defined as the number of rats with clinical evidence of joint inflammation during the study period.

[10] = PBS-20% DMSO, read-out: IC50 (μM): Assay in PBS-20% DMSO
[11] = PBS, read-out: IC50 (μM): Assay in PBS

T2 sequence (P01375 77-233 limits assumed): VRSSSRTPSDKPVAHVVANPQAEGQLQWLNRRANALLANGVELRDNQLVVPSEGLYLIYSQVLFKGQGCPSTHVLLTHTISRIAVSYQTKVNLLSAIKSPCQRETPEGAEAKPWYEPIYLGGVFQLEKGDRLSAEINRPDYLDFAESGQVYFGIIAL
T3 sequence (P01375 77-233 limits assumed): as above

IC50 [1] [µM]	IC50 [2, 10] [µM]	IC50 [2, 11] [µM]	inhibition at 100 µM [3] [%]	inhibition at 10 µM [3] [%]	inhibition at 100 µM [4] [%]	inhibition at 10 µM [4] [%]	inhibition at 100 µM [5] [%]	inhibition at 10 µM [5] [%]	inhibition at 100 µM [6] [%]	inhibition at 10 µM [6] [%]	SMILES	inhibition at 20 µM (RAW 264.7 cells) [%]	survival of MRL/lpr mice (MRL/lpr mice) [%]	inhibition at 10 µM [7] [%]	inhibition at 20 µM [7] [%]	inhibition at 40 µM [7] [%]	inhibition at 5 µM [7] [%]	reduction in the severity of arthritis (arthritic index) [8] [%]	inhibition of chronic inflammation (days 12 to 21) ([9]; days 15 to 21)	reduction in the severity of arthritis (inflammatory index) ([9]; intravenous, by day 19 and over, FIG. 10) [%]
11.8	63	33	–	–	–	–	–	–	–	–	N=C(N)NCCNc1nc(NCCc2ccc(Oc3nc(NCCc4ccc(O)cc4)nc(Nc4ccccc4)n3)cc2)nc(Nc2ccccc2)n1 [Compound 14]	~50	–	–	–	–	–	–	–	–
94.4	40	44	-105	-86.7	-69.4	-47.4	5.26	2.06	2.19	4.5	NCCc1ccc(Nc2nc(NCCNc3nc(Nc4ccccc4)nc(Nc4ccc(CCN)cc4)n3)nc(Nc3ccccc3)n2)cc1 [Compound 4]	–	–	11.2	25.3	44	2.4	–	–	–
44	36	–	38.5	21.2	15.4	4.6	2.68	4.31	1.54	2.95	Cc1ccccc1Nc1nc(NCCNc2nc(NCCc3ccc(O)cc3)nc(Nc3ccccc3C)n2)nc(NCCc2ccc(O)cc2)n1 [Compound 5]	–	–	35.1	38.7	35.4	28.9	–	–	–

The next lines start with the molecule.

SMILES	IC50 [1] [µM]	IC50 [2, 10] [µM]	IC50 [2, 11] [µM]	inhibition at 100 µM [3] [%]	inhibition at 10 µM [3] [%]	inhibition at 100 µM [4] [%]	inhibition at 10 µM [4] [%]	inhibition at 100 µM [5] [%]	inhibition at 10 µM [5] [%]	inhibition at 100 µM [6] [%]	inhibition at 10 µM [6] [%]	inhibition at 20 µM (RAW 264.7 cells) [%]	survival of MRL/lpr mice (MRL/lpr mice) [%]	inhibition at 10 µM [7] [%]	inhibition at 20 µM [7] [%]	inhibition at 40 µM [7] [%]	inhibition at 5 µM [7] [%]	reduction in the severity of arthritis (arthritic index) [8] [%]	inhibition of chronic inflammation (days 12 to 21) ([9]; days 15 to 21)	reduction in the severity of arthritis (inflammatory index) ([9]; intravenous, by day 19 and over, FIG. 10) [%]
OCCNc1nc(NCCc2ccc(Nc3nc(NCCc4ccc(O)cc4)nc(Nc4ccccc4)n3)cc2)nc(Nc2ccccc2)n1 [Compound 20]	23.3	26	–	–	–	–	–	–	–	–	–	–	40	–	–	–	–	–	–	–
CN(Cc1cnc2nc(N)nc(N)c2n1)c1ccc(C(=O)N[C@@H](CCC(=O)O)C(=O)O)cc1 [methotrexate, reference compound]	–	–	–	–	–	–	–	–	–	–	–	–	–	–	–	–	–	50	strong and significant inhibition of inflammation	50
Oc1ccc(CCNc2nc(NCCCNc3nc(NCCc4ccc(O)cc4)nc(Nc4ccccc4)n3)nc(Nc3ccccc3)n2)cc1 [Compound 25]	15.9	–	–	49.2	4.8	22.9	3.95	4.22	6.76	5.65	6.74	–	–	22.8	-0.7	-17.8	27.5	–	–	–
